Laboratory results as given in patent US11236147B2, “Methods and compositions for the inhibition of TRPV4” (CHILDREN'S MEDICAL CENTER CORPORATION, priority 2013, dated 2022).
“Also recorded” adds a separate entry of the source.

Legend:
TRPV4 [1] = target: T1, TRPV4 (Homo sapiens, UniProt Q9HBA0); experiment: Calcium imaging: calcium influx by chemical stimulation (4α-PDD); format: cell-based
T1 construct: Transient increases in intracellular calcium were detected quickly after force application in HUVE cells treated with control siRNA; endogenous in cells; host or cells: HUVE cells (ATCC) treated with control or CD98 siRNA
Method: (§1) FIG. 6A depicts a graph of the relative change in cytosolic calcium in response to static stretch (20%, 4 second arrow) in Fluo-4-loaded CE cells treated with control or CD98 siRNA. FIG. 6B depicts a graph of the average relative increases in cytosolic calcium induced by mechanical strain in HUVE cells treated with control or CD98 siRNA. FIG. 6C depicts a graph of the relative change in cytosolic calcium in response to 4α-PDD (10 μM) in Fluo-4-loaded CE cells treated with control or CD98 siRNA. FIG. 6D depicts a graph of the average relative increases in cytosolic calcium induced by chemical strain in HUVE cells treated with control or CD98 siRNA.
(§2) Specific inhibition of mechanical activation of TRPV4 activity. Moreover, TRPV4 is specifically activated by mechanical strain (12). To examine whether CD98 transducse the signal by mechanical stimulation through TRPV4, the calcium influx by mechanical stimulation was investigated. Transient increases in intracellular calcium were detected quickly after force application in HUVE cells treated with control siRNA. […] TRPV4 is also activated by chemical stimulation such as 4α-phorbol 12, 13-didecanoate (4α-PDD).
(§3) Mechanical strain application, measurement of cell orientation, Calcium Imaging were performed as described (Thodeti et al., 2009)

TRPV4 [2] = target: T1, TRPV4; conditions: human lung-on-a-chip microdevice, IL2-induced; cited from earlier work
TRPV4 [3] = target: T2, TRPV4 (Rattus norvegicus, UniProt Q9ERZ8); conditions: rats; cited from earlier work
T2 construct: host or cells: rats, in vivo

TRPV4 [4] = target: T3, TRPV4 (Mus musculus, UniProt Q9EPK8); conditions: mice; cited from earlier work
T3 construct: host or cells: mice, in vivo

TRPV4 [5] = target: T4, TRPV4 (Canis lupus familiaris, UniProt A0A8I3PAV3); conditions: dog; cited from earlier work
T4 construct: host or cells: dog, in vivo

[6] = tested on: binding between β1-integrin and TRPV4; experiment: Immunoprecipitation of TRPV4 / β1-integrin binding in HUVE cells after CD98 siRNA knock down; format: cell-based, human; conditions: CD98 siRNA vs control siRNA, co-immunoprecipitation
From the text: (§4) The cells were transfected with control or CD98 siRNA. The amount of each component in the total cell lysates is given in the left panel. In the right lanses the cell lysates were immunoprecipitates with rabbit anti-TRPV4 (upper) or mouse anti-β1-integrin antibody (lower).
(§5) CD98 mediates the binding between TRPV4 and β1-integrin at focal adhesion. The question is what the molecular mechanism is by which CD98 mediates the signaling from β1-integrin to TRPV4. CD98 is important for surface expression and clustering of β1-integrin in MCF7 cells (11). Therefore, it was examined whether CD98 mediates the binding between β1-integrin and TRPV4 using siRNA-based knockdown of CD98. […] Thus, CD98 deficiency doesn't affect the formation of focal adhesion.
(§6) siRNA knock down of CD98. RNA interference assay was conducted with human CD98 siRNA duplexes: 5′-[…]-3′ (SEQ ID NO: 21) and 5′-[…]-3′ (SEQ ID NO: 22). Cells were transfected with 50 nM of the siRNA duplexes in Opti-MEM™ (Invitrogen) using silentFect Lipid Reagent for RNAi (BIO-RAD), according to the manufacturer's instructions.
Immunoprecipitation. Cells were extracted in ice-cold TRITON™ buffer (50 mM Tris-HCL, pH 7.4, containing 150 mM NaCl, 1% TRITONX100™, 5 mM EDTA). […] Subsequently the beads were isolated by magnet and washed five times with TRITON™ buffer and then were detected by SDS-PAGE and immunoblotting.

HUVE cells [7] = experiment: Localization of TRPV4, CD98, integrin and vinculin at focal adhesions (TIRF / immunofluorescence); format: cell-based, human; conditions: CD98 siRNA
From the text: TRPV4 associates with CD98 and β1-integrin at focal adhesion. The terminal 6 amino acid residues at the carboxy end of the β1-integrin cytoplasmic mediate calcium signaling and are required for rapid force induced TRPV4-mediated calcium signaling (10). It was postulated that CD98, which binds to the last 6 carboxy terminal amino acids of β1-integrin, is involved in the TRPV4 activation by β1-integrin using genetically engineered mutant integrin constructs. First, it was confirmed that CD98 binds to integrins through the region of the β1-integrin tail using β1-integrin mutant constructs to transfect HEK293T cells followed by an immunoprecipitation assay. It was also confirmed that TRPV4 also interacts with the same region of β1-integrin using the same β1-integrin mutant constructs (data not shown). To explore the binding between those molecules, whether CD98 and β1-integrin can be co-precipitated from HUVE cell lysates using anti-TRPV4 antibody was determined (FIG. 1A). TRPV4 similarly precipitates with either anti-β1-integrin or anti-CD98 antibody (FIG. 1B). Moreover, it was confirmed that TRPV4 overlapped with CD98 at vinculin positive focal adhesions by Total Internal Reflection Fluorescence (TIRF, data not shown).
siRNA knock down of CD98. RNA interference assay was conducted with human CD98 siRNA duplexes: 5′-[…]-3′ (SEQ ID NO: 21) and 5′-[…]-3′ (SEQ ID NO: 22). […]

HUVE cells [8] = experiment: Scratch wound cell migration assay; format: cell-based, human; conditions: monolayer HUVE cells, CD98 siRNA vs control siRNA
From the text: as §5
It was next asked whether CD98 serves to link β1-integrin to TRPV4. […] Thus, CD98 is not required for focal adhesion formation or function. […] Although TRPV4 expression was not decreased, TRPV4 couldn't localize at focal adhesions (data not shown).

HUVE cells [9] = experiment: Actin rearrangement / cell orientation after 20% uniaxial cyclic strain; format: cell-based, human
Method: (§7) CD98 involves actin rearrangement on mechanotransduction. To confirm that CD98 translates the mechanical signal from β1-integrin to TRPV4 by mediating the binding, it was examined whether CD98 is required for the actin arrangement induced by cyclic strain. To analyze it, HUVE cells were cultured on flexible fibronectin-coated substrates and subjected to 20% uniaxial cyclic strain using a FlexrCell™ Tension Plus system. […] In contrast, this response was abolished by the treatment with CD98 siRNA (FIG. 5).
as §3
as §7, with “To” for “CD98 involves actin rearrangement on mechanotransduction. To”, “FlexrCell” for “FlexrCell™”, “Plus™” for “Plus”

TRPV4 [10] = experiment: Calcium imaging: calcium influx by mechanical stimulation; format: cell-based, human; conditions: HUVE cells, CD98 siRNA vs control siRNA, Fluo-4, static stretch 20%
Method: as §1, §2, §3

TRPV4 [11] = experiment: TRPV4 expression in total cell lysates after CD98 knock down; format: cell-based, human; conditions: HUVE cells, CD98 siRNA
Method: as §4, §6

[12] = target: T5, binding between β1-integrin and TRPV4 (Homo sapiens, UniProt P05556+Q9HBA0); experiment: Immunoprecipitation binding assay in HEK293T cells transfected with HA-linked CD98 high homology domain; format: cell-based; conditions: HEK293T cells, 2.5, 5 μg HA-linked CD98 high homology domain vs HA vector, 24 h
T5 construct: endogenous in cells; host or cells: HEK293T cells (ATCC); only the HA-CD98 high homology domain is transfected
Method: 2.5, 5 μg HA-linked CD98 high homology domain or 5 μg HA vector was transfected into HEK293T cells, and the binding assay was performed 24 h later. The bottom panel gives the amount of each transgene in total cell lysates of respective transfectants. In the top or the 3rd panel, the lysates were immunoprecipitated with an anti-β1-integrin or TRPV4 antibody, and the amount of TRPV4 or β1-integrin in the precipitates was blotted with each antibodies. The 2nd or the 4th panel gives the amount of β1-integrin or TRPV4 in total cell lysates.
Immunoprecipitation. Cells were extracted in ice-cold TRITON™ buffer (50 mM Tris-HCL, pH 7.4, containing 150 mM NaCl, 1% TRITONX100™, 5 mM EDTA). Cell extracts were centrifuged at 10000 g for 15 min at 4° C. prior to being immunoprecipitated with each antibodies and DYNABEADS™ Magnetic Beads (Invitrogen) at 4° C. Subsequently the beads were isolated by magnet and washed five times with TRITON™ buffer and then were detected by SDS-PAGE and immunoblotting.
As described above, high homology domain of CD98 is important for the binging to either β1-integrin or TRPV4. […] Therefore, CD98 mediates the binding between β1-integrin and TRPV4 at focal adhesion through high homology domain of CD98.

T1 sequence (Q9HBA0 whole entry): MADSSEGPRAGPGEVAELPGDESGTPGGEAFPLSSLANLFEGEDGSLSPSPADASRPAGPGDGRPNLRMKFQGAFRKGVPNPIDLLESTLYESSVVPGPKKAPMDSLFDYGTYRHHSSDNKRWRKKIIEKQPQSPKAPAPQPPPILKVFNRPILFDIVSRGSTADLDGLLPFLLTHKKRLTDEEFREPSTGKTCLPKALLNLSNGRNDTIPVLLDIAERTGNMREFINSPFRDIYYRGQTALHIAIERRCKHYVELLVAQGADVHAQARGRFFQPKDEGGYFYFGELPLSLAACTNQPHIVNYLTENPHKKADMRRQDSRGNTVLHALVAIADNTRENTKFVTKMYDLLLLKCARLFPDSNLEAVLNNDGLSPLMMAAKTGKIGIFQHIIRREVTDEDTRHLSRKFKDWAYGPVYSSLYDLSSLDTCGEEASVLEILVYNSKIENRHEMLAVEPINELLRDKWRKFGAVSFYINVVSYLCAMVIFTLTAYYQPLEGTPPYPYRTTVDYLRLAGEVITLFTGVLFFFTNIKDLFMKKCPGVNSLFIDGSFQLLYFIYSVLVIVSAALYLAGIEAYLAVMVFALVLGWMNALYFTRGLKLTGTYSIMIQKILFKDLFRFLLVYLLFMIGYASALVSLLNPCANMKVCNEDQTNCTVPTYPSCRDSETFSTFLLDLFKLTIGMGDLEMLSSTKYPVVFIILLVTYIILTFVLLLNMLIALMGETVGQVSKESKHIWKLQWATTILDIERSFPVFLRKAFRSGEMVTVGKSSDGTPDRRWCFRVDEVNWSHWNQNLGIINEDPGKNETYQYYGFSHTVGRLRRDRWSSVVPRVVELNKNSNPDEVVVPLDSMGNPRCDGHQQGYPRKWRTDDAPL
T5 sequence (Q9HBA0 whole entry, the tested form may be a part): as the sequence (Q9HBA0 whole entry) above
T5 sequence (P05556 21-798): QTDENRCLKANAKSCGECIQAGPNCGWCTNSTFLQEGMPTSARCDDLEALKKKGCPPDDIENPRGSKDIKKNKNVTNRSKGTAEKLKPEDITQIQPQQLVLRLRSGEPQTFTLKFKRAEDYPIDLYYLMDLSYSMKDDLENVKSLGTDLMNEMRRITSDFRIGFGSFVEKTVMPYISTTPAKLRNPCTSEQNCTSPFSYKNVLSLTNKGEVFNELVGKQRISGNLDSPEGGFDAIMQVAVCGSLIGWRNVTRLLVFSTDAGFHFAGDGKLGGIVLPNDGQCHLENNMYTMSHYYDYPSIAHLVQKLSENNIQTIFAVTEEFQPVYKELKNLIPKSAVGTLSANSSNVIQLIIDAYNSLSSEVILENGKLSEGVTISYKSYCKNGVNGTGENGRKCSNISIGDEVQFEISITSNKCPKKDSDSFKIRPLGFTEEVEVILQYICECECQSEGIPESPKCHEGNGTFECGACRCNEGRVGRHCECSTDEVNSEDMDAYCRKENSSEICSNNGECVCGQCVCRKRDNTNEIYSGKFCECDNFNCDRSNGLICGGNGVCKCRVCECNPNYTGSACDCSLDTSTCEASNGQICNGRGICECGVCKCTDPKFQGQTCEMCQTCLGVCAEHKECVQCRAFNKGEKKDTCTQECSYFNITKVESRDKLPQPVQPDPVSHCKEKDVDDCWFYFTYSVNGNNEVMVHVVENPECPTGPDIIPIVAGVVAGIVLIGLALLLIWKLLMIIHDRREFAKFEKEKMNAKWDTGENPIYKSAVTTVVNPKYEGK
T3 sequence (Q9EPK8 whole entry): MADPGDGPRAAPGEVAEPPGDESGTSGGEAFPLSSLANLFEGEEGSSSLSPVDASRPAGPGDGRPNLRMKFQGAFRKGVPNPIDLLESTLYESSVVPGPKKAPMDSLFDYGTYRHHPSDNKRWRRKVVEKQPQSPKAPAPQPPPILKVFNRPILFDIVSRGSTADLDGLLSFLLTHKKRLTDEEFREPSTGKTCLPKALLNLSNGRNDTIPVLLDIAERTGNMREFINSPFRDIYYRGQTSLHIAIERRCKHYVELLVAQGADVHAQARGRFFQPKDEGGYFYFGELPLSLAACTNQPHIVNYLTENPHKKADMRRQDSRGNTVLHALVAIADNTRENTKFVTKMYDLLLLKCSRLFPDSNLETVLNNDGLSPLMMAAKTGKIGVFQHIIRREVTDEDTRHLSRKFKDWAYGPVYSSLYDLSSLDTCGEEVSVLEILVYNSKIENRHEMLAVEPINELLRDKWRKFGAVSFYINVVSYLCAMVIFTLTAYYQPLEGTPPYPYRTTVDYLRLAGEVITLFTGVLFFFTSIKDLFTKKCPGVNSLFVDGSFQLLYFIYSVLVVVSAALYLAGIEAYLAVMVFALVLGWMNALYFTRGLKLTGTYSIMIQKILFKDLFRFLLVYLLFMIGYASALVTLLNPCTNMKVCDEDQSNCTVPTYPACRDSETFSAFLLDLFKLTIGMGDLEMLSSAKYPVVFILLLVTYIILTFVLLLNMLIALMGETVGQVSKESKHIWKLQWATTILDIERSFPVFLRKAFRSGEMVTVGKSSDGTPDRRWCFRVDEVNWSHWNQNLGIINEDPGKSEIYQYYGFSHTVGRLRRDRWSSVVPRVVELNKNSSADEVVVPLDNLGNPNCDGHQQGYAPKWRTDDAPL
T2 sequence (Q9ERZ8 whole entry): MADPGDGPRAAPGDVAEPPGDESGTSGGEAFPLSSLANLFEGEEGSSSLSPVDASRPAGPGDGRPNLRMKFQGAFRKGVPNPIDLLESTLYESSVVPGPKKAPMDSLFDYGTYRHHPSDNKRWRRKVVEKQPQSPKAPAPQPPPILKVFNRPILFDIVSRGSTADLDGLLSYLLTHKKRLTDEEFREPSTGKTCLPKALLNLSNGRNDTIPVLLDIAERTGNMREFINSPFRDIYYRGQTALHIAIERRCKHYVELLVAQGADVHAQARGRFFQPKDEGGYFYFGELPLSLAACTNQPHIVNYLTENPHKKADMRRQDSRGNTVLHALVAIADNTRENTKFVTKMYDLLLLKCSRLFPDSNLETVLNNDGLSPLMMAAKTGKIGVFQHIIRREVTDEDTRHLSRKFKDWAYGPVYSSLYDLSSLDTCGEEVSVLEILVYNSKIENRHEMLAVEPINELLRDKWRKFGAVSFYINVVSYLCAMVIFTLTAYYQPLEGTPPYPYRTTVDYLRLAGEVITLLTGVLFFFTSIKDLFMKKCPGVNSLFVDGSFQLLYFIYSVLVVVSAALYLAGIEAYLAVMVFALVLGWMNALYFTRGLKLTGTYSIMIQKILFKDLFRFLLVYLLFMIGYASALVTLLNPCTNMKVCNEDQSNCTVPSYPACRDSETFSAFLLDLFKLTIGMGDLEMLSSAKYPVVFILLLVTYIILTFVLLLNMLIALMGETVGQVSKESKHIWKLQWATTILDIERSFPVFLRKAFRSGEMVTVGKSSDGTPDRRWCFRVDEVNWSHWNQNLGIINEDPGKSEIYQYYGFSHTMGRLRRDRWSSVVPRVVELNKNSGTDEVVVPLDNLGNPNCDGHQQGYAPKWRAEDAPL
T4 sequence (A0A8I3PAV3 1-828): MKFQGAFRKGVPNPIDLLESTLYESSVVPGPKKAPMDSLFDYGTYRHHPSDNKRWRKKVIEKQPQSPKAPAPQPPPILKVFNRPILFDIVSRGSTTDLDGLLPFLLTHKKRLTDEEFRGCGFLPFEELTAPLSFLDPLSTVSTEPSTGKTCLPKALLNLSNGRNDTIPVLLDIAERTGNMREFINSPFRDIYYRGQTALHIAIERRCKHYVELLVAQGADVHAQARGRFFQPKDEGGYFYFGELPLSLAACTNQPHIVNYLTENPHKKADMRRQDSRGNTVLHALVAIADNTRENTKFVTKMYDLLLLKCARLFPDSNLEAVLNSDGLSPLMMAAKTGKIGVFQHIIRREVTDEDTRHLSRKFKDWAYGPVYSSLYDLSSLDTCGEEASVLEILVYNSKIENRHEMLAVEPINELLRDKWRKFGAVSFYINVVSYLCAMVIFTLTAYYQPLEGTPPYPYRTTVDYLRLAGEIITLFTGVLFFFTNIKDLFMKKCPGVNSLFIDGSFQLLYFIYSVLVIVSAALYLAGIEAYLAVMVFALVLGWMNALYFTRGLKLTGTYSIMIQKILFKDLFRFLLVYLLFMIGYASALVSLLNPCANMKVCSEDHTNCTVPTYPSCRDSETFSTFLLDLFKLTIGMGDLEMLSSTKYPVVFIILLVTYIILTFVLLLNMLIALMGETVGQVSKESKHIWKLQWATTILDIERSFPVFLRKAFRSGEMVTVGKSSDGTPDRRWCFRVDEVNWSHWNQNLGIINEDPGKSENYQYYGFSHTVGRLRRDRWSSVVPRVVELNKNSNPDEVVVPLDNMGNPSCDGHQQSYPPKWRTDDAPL

CCCCCCCCCC(=O)O[C@@H]1[C@@H](C)[C@@]2(O)[C@@H](C=C(CO)C[C@@]3(O)C(=O)C(C)=C[C@@H]23)[C@@H]2C(C)(C)[C@]12OC(=O)CCCCCCCCC [4α-PDD, 4α-phorbol 12, 13-didecanoate]
intracellular calcium in response to 4α-PDD (TRPV4 [1]; HUVE cells treated with either control or CD98 siRNA, 4α-PDD 10 μM): rapid increase in intracellular calcium

O=C(NC1(c2ccccc2)CC1)c1c(CN2CCC(N3CCCCC3)CC2)c(-c2cccc(C(F)(F)F)c2)nc2cc(Br)ccc12 [GSK2193874]
pulmonary vascular leakage and lung edema development (TRPV4 [2]): prevent pulmonary vascular leakage and lung edema development | cardiogenic pulmonary edema (TRPV4 [3]): prevents cardiogenic pulmonary edema | cardiogenic pulmonary edema (TRPV4 [4]): prevents cardiogenic pulmonary edema | cardiogenic pulmonary edema (TRPV4 [5]): prevents cardiogenic pulmonary edema

CD98 siRNA: human CD98 siRNA duplexes: 5′-GAAUGGUCUGGUGAAGAUC-3′ (SEQ ID NO: 21) and 5′-GAUCUUCACCAGACCAUUC-3′ (SEQ ID NO: 22) (listed as RNA, chemistry not given here; listed as Homo sapiens)
association (binding) of TRPV4 and β1-integrin [6]: can't bind to β1-integrin; also recorded: decreased association of TRPV4 and β1-integrin; also recorded: greatly reduced the amount of the binding between β1-integrin and TRPV4 | TRPV4 localization at focal adhesions (HUVE cells [7]): can't localize at focal adhesion; also recorded: loss of TRPV4 from focal adhesions; also recorded: prevented; also recorded: greatly reduced the amount of both CD98 and TRPV4 within focal adhesions | recruitment of integrins or vinculin to focal adhesions (HUVE cells [7]): no effect | cell migration in scratch wound assay (HUVE cells [8]): normally restored; also recorded: did not interfere with cell migration | stress fiber realignment (actin rearrangement) induced by cyclic strain (HUVE cells [9]; HUVE cells, CD98 siRNA vs control siRNA, 20% uniaxial cyclic strain, 2 hours): inhibited; also recorded: abolished | transient increase in intracellular calcium after force application (mechanical activation of TRPV4) (TRPV4 [10]): inhibited; also recorded: didn't show this response; also recorded: inhibits calcium influx | calcium influx of TRPV4 activation by chemical treatment (TRPV4 [1]; HUVE cells, CD98 siRNA vs control siRNA): not inhibited; also recorded: not by chemical activators | TRPV4 expression (TRPV4 [11]): not decreased

high homology domain of CD98: domain of CD98 having the sequence of SEQ ID NO: 1; N-terminal region highly conserved from Drosophila to mammals (KFTGLSKEELLKVAGSPGWVRTRWALLLLFWLGWLGMLAGAVVIIVRAPRC)
β1-integrin binding to TRPV4 [12]: decreased | β1-integrin binding to TRPV4 ([12]; listed as high homology domain): inhibited | actin rearrangements after mechanical strain (HUVE cells [9]; HUVE cells overexpressing high homology domain of CD98 vs vector): didn't show actin rearrangements
